Measurements as given in BindingDB's records for doi:10.1016/j.bmc.2013.03.004 (University of Oxford, 2013).

Biological target: T1, Lysosomal acid glucosylceramidase (Bos taurus, UniProt Q2KHZ8)
T1 sequence (Q2KHZ8 whole entry): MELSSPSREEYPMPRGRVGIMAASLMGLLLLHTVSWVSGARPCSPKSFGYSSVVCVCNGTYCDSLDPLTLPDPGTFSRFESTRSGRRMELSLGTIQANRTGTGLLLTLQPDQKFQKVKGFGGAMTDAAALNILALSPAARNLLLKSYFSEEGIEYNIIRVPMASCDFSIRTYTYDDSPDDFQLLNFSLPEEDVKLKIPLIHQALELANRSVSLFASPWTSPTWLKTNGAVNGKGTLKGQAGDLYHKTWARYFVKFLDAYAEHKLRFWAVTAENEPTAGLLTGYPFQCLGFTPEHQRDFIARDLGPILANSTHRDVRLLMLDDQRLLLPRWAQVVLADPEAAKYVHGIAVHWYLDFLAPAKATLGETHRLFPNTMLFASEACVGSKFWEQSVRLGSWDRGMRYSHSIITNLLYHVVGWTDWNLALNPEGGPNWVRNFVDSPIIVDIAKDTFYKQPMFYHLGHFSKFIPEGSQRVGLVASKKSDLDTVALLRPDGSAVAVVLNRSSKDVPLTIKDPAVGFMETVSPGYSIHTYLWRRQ
Test: Inhibition of bovine liver beta-glucosidase

- IC50: 997 µM
Compound: OC[C@H](O)[C@@H]1NC[C@@H]1O
